In one assay the test system is ATCC17978-infected mice. Nature of the assay: Mouse sepsis infection model with immunosuppressive drug treatment (survival, body weight, spleen weight). It counts as in vivo, C57BL/6 mice. The settings on record: for survival rate of ATCC17978-infected mice: intraperitoneal drug. The method, then: (§1) The mouse infection model was employed to detect the immune response induced by Ab in vivo. Mice of the same sex were randomly divided into several groups (5 animals per group) and then infected by 7.5×10^7 CFU of Ab test strain by intraperitoneal administration. The body weight of all mice was recorded before infection and at 12 hours post-infection. Survival of the test animals was determined by recording the mortality rate during the 120-hour experiment. At 12 hpi, the mice were sacrificed, and the organs were collected and homogenized for bacterial load measurement and analysis by flow cytometry, RNAseq, scRNAseq and qRT-PCR assay. The serum of the mice was collected for ELISA detection. Animal experiments were conducted at least twice to assess the consistency of the data.
To test the effect of NSAIDs treatment, the mice were administered intraperitoneal injections of 50 mg/kg NPXS and 100 mg/kg ASA 1 h before ATCC 17978 infection; a group of mice that served as control received equivalent volumes of PBS. The survival rate, health status, and weight of the test animals were recorded during the next 120 hours.

The test system of another assay is RAW264.7 cells. Nature of the assay: Inhibitor treatment in RAW264.7 infected with ATCC 17978, flow cytometry of CD86/CD206. It counts as cell-based, mouse. The note with it: RAW264.7 pretreated 1 h, Ab MOI=5 for 6 h; compared to cells not treated with the inhibitors. How it is done: RAW264.7 cells were pre-treated for 1 h with the culture medium, C29 (100 μM)^22, TJ-M2010-5 (20 μM)^23 and JSH-23 (30 μM)^24 (MCE, NJ, USA) respectively, and then stimulated with Ab (MOI=5) for 6 h in the presence of the culture medium, C29, TJ-M2010-5 or JSH-23. Cell supernatants were collected for subsequent cytokine measurement. RAW264.7 cells were incubated with fluorescently labeled antibodies against mouse F4/80, CD206, and CD86 for flow cytometric analysis, following washes three times with PBS and resuspension in PBS containing 2.5% FBS.
(In flow cytometry, cells or beads pass a laser one at a time.)

The test system of assay [1] is serum cytokine production (TNF-α, IL-6 and IL-1b). The settings on record: Ab-infected mice, ELISA. The method, then: as §1
Blood was collected from the test mice by orbital bleeding and clotted at RT for 1 h. Blood was subsequently subjected to centrifugation at 10,000 g for 25 min at 4° C. Serum was divided into tubes and stored immediately at −80° C. until cytokine analysis.
The enzyme-linked immunosorbent assay (ELISA) was used to perform cytokine analysis in mouse serum and cell supernatants. Mouse serum was extracted as described above. Pre-treated macrophage cell supernatants were harvested and centrifuged to remove impurities. The levels of IL1β, IL6, and TNF-α were measured by using the IL-1 beta, IL-6 and TNF alpha Mouse Uncoated ELISA Kit (Thermo Fisher Scientific) according to the manufacturer's protocols, respectively.

Assay [2] deals with pro-inflammatory, COX and TLR2/Myd88/NF-κB signaling pathway-related genes. How it is done: as §1
Total RNA was extracted from the homogenized lung samples or RAW264.7 cells (ATCC, CA, USA) upon Ab infection, utilizing the TRIzol™ method (Thermo Fisher Scientific, MA, USA). Turbo DNA-free™ Kit (Invitrogen, CA, USA) was employed for removal of DNA contaminants. 1 μg purified mRNA was reverse transcribed into cDNA using SuperScript™ III First-Strand Synthesis SuperMix Kit (Invitrogen), with a 1:10 dilution for subsequent qRT-PCR analysis. The qRT-PCR was then performed on an ABI QuantStudio 7 Flex Real-Time PCR System (Applied Biosystems, CA, USA) by the PowerUP SYBR Green master mix (Applied Biosystems). The target gene transcription levels were quantified by the comparative Ct method and normalized to the expression level of glyceraldehyde-3-phosphate dehydrogenase (GADPH).
Total RNA extracted from lung samples was sequenced by Novogene Technology (Hong Kong SAR, China). Bioanalyzer 2100 system was used to measure RNA integrity (Agilent Technologies, CA, USA); the NEBNextUltra RNA Library Prep Kit (NEB, CA, USA) was employed to construct the cDNA libraries for Illumina sequencing. The index-coded samples clustering was carried out on a cBot Cluster Generation System by the TruSeq PE Cluster Kit v3-cBot-HS (Illumia, CA, Illumia). The libraries were sequenced on the Illumina Novaseq platform with paired-end 150 bp reads. HISAT2 was used for sequencing reads alignment. Fragments per gene were counted based on exon regions with FeatureCounts v.1.6.243. Differential mRNA level analysis was carried on by the DESeq2 R package. Unigenes with P.adjust<0.05 and |Log2Fold Change|>1 could be described as differentially expressed genes. Gene Enrichment Analysis was conducted for gene ontology enrichment analysis.

Assay [3] relates to CD11b+F4/80+ macrophages in the lungs of Ab-infected mice. The method, then:
as §1

The mark [4] stands for this setting: RNA-seq, ATCC 17978-infected mice after NPXS treatment, stated as suppressed.

For `CC(=O)Oc1ccccc1C(=O)O` [ASA, acetylsalicylic acid], the “survival rate of ATCC17978-infected mice” value in the assay with ATCC17978-infected mice (at 24 h) stood at 60%. The “anti-inflammatory potency recorded during Ab infection” value in the assay on ATCC17978-infected mice (comparison with naproxen) is “inferior to that of naproxen”.

For the compound `Cn1cnc([N+](=O)[O-])c1Sc1ncnc2nc[nH]c12` [AzA, azathioprine], the “survival rate of ATCC17978-infected mice” value in the assay with ATCC17978-infected mice (at 36 h) was found to be 40%.

`C[C@@H]1C[C@H]2[C@@H]3CCC4=CC(=O)C=C[C@]4(C)[C@@]3(F)[C@@H](O)C[C@]2(C)[C@@]1(O)C(=O)CO` [DXMS, dexamethasone]: the “survival rate of ATCC17978-infected mice” value in the assay with ATCC17978-infected mice (at 48 h) came out at 40%.

With `Cc1ccc(NCCCc2ccccc2)c(N)c1` [JSH-23], in the assay on RAW264.7 cells, the “CD86 MFI levels” value is reported as “decrease” and the “CD206 MFI levels” value is reported as “no difference”.

As to `COc1ccc2cc([C@H](C)C(=O)O)ccc2c1` [NPXS, (+)-(S)-2-(6-methoxynaphthalen-2-yl) propanoic acid], in assay [1], the “reduction of serum IL-1b production” value is listed as “more than 50 fold”, the “reduction of serum IL-6 production” value is “more than 50 fold” and the “reduction of serum TNF-α production” value is given as “more than 50 fold”. In addition, the “relative expression of TLR2/Myd88/NF-κB signaling pathway-related genes” value in assay [2] (ATCC 17978-infected mice after NPXS treatment) is given as “further reduction”. Besides, the “transcript levels of most pro-inflammatory genes” value in assay [2] (Ab-infected mice, lungs) is given as “significantly lower”. For the same compound, in assay [2] (setting [4]), the “expression of COX1 gene, Log2FC” value came to 0.4194 and the “expression of COX2 gene, Log2FC” value is reported as 0.2429. For the same compound, the “CD86 MFI levels (M1 polarization)” value in assay [3] (F4/80+ macrophages in the lungs of Ab-infected mice) is listed as “effectively attenuated”. Besides, the “infiltration of CD11b+F4/80+ macrophages” value in assay [3] (lungs of Ab-infected mice) is given as “did not result in decrease”. For the same compound, in the assay on ATCC17978-infected mice (12 hpi, on average, infected untreated 6.7%), the “extent of body weight loss” value came to 3.6%. For the same compound, the “splenomegaly (percentage of spleen weight)” value with ATCC17978-infected mice (on average, infected untreated 0.48%) is 0.38%. In addition, the “infected mice protected from death” value in the assay on ATCC17978-infected mice (within 120 h, 50 mg/kg i.p. 1 h before infection) was determined as 100%.

Consider `O=C(CCN1CCN(Cc2ccccc2)CC1)Nc1nc(-c2ccccc2)cs1` [TJ-M2010-5], for which, in the assay with RAW264.7 cells, the “CD86 MFI levels” value was “decrease” and the “CD206 MFI levels” value was “no difference”.

The record behind these values is patent publication US20250255841A1, “METHODS FOR TREATING CYTOKINE STORM ASSOCIATED WITH ACINETOBACTER BAUMANNII INFECTIONS” (City University of Hong Kong, priority 2024, published 2025).
